Data as given in US12544347B2, “Anti-cancer combination and a method of therapy using the combination” (NATIONAL CENTRE FOR CELL SCIENCE, priority 2018, dated 2026).
Counter-ions that a name gives are not always drawn.

Key:
Type in all cases: cell-based
[1] = tested on: prostate apoptosis response (Par)-4; assay: Western blotting of intracellular and secretory Par-4 in LN-18 cells; settings: TAM 10 μg/ml, VPA 2 mM, alone or combined, 48 hr
Experimental: FIG. 4 depicts the effect of combination of tamoxifen (10 μg/ml) and valproic acid (2 mM) on the levels of secretory Par-4 and expression of GRP78 in […] cells wherein the control (C) represents untreated cells, V represents for valproic acid, T represents for tamoxifen and V+T represents combination of tamoxifen and valproic acid. The LN-18 cells were treated with tamoxifen or valproic acid alone or in combination for 48 hrs.
LN-18 cells were seeded in 6 well plate (0.3 million cells/well) and treated with TAM (10 μg/ml) and VPA (2 mM) either individually or in combination for 48 hr. Cell lysates were assessed for expression of intracellular prostate apoptosis response (Par)-4 and secretory Par-4 was measured in supernatants. Western blotting was done using 10% gels and the proteins were identified using specific antibodies followed by probing with luminol-based Enhanced Chemiluminescent (ECL) western blotting substrate. The results are presented at FIG. 4.

LN-229 cells = assay: MTT assay, cell viability in LN-229 cells (monolayer or multicellular spheroids); settings: LN-229 MCS; TAM alone; 24 hr
Experimental: (§1) FIG. 1 depicts cell viability assessed by MTT assay in GBM cell lines-LN-18 and LN-229 using tamoxifen (TAM) at concentration of 5 μg/ml, 10 μg/ml and 15 μg/ml; individually and in combination with Valproic Acid (VPA) (2 mM) wherein the cells were cultured as monolayer (ML) or Multicellular Spheroids (MCS). Unt-open bar-represents untreated cells and hatched bar—[…] (2 mM). Further, the open bars (in 5, 10 15) depict TAM alone and the hatched bars depict TAM in combination with VPA. FIG. 1 also depicts the P values (represented as *) significant for differences between TAM alone versus TAM+VPA. The images are LN-18 cells grown as 2D cultures—ML and 3D-MCS.
MTT assay was employed for assessing the combined action of tamoxifen (TAM) and VPA. LN-18 cells and LN-229 were seeded in 96 well plate (5000 cells/100 ul/well) in complete medium and cultured for 24 hr in two culture models-monolayer and 3D culture. Cells were treated with tamoxifen (TAM) at 3 concentrations-5 μg/ml, 10 μg/ml and 15 μg/ml either individually or in combination with Valproic Acid (VPA) (2 mM) for 24 hr. MTT was added and after 4 hr the crystals were solubilized using DMSO. Absorbance was recorded at 490 nm (test filter) and 570 nm (reference filter). The % cell viability in treated cells was calculated considering the readings in untreated cells as 100%. The results are presented at FIG. 1. […]

LN-18 cells = assay: MTT assay, cell viability in LN-18 cells (monolayer or multicellular spheroids); settings: 24 hr
Experimental: as §1
FIG. 3 depicts the effect of Valpromide (VPM), an analogue of VPA causing sensitization of tamoxifen (TAM) which induced cell death in LN-18 cells cultured as monolayer (ML). […] The P values (represented as *) are significant for differences between TAM alone versus TAM+VPA/VPM.
MTT assay was employed for assessing the combined action of tamoxifen (TAM) and VPA. LN-18 cells and LN-229 were seeded in 96 well plate (5000 cells/100 ul/well) in complete medium and cultured for 24 hr in two culture models-monolayer and 3D culture. Cells were treated with tamoxifen (TAM) at 3 concentrations-5 μg/ml, 10 μg/ml and 15 μg/ml either individually or in combination with Valproic Acid (VPA) (2 mM) for 24 hr. MTT was added and after 4 hr the crystals were solubilized using DMSO. Absorbance was recorded at 490 nm (test filter) and 570 nm (reference filter). The % cell viability in treated cells was calculated considering the readings in untreated cells as 100%. The results are presented at FIG. 1. […] From FIG. 1, it is evident that the combination of the present invention is synergistic.
LN-18 cells (ML) were seeded in 96 well plate (5000 cells/100 ul/well) in complete medium and cultured for 24 hr. […] Absorbance was recorded at 490 nm (test filter) and 570 nm (reference filter). The % cell viability with treatment was calculated with readings in untreated cells considered as 100%. […]

[2] = tested on: prostate apoptosis response (Par)-4; assay: Western blotting of intracellular Par-4 in LN-229 cells; settings: LN-229 cell lysates; TAM 12 μg/ml, VPA 2 mM, alone or combined; 24 hr
Experimental: FIG. 5 depicts the effect of tamoxifen (12 μg/ml) or valproic acid (2 mM) alone or combination of tamoxifen and valproic acid on Par-4 expression in LN-229 cells for 24 hr. GAPDH was used as loading control and control group (C) represents untreated cells. LN-229 cells were seeded in 6 well plate (0.3 million cells/well) and treated with TAM (12 μg/ml) and VPA (2 mM) either individually or in combination for 24 hr. Cell lysates were assessed for expression of intracellular prostate apoptosis response (Par)-4. Western blotting was done using 10% gels and the proteins were identified using specific antibodies followed by probing with luminol-based Enhanced Chemiluminescent (ECL) western blotting substrate.

SMILES | cellular Par-4 level (western blot) ([1]; LN-18 cell lysates) | secretory Par-4 level (western blot) ([1]; LN-18 supernatants) | effect on % cell viability (MTT) (LN-229 cells) | effect on % cell viability (MTT) (LN-18 cells; LN-18 MCS, TAM alone) | effect on % cell viability (MTT) (LN-18 cells; LN-18 cells, TAM 15 ug/ml alone) | effect on % cell viability (MTT) (LN-18 cells; monolayer, TAM 5, 10 and 15 μg/ml alone) | cellular Par-4 expression (western blot) [2]
CC/C(=C(\c1ccccc1)c1ccc(OCCN(C)C)cc1)c1ccccc1 [TAM, (Z)-2[p[(1,2-diphenyl-1-butenyl)phenoxyl]-N,N-dimethylamine citrate] | enhanced | enhanced | resistant | resistant | toxic | dose dependent | –
CCCC(CCC)C(=O)O [VPA, Valproic acid] | – | – | – | – | – | – | induced
